Reference: ChEMBL document CHEMBL1145985, “Poly(ethylene glycol) transport forms of vancomycin: a long-lived continuous release delivery system” (J Med Chem, 2003)
Values after ≈ are worked out from the molar mass of the structure shown.

Experiments:
[1] = Solubility was measured in saline at 25 degree C; format: physicochemical
[2] = Half-life in rat plasma; format: ADME, organism-based
Mus musculus [3] = species on record: Mus musculus; experiment: Anti-microbial activity against Staphylococcus aureus measured as percent survival of mice after pre challenge; format: functional
[4] = Half-life in human plasma; format: ADME, cell-free
Rattus norvegicus [5] = experiment: (§1) Clearance measured after intravenous bolus administration of 50 mg/kg of compound to rats; format: ADME, organism-based; parameters: dose 50 mg/kg, route intravenous; details: in vivo
Mus musculus [6] = species on record: Mus musculus; experiment: Anti-microbial activity against Staphylococcus aureus measured as percent survival of mice 1 hr post challenge; format: functional; parameters: concentration or dose not given beside the values
Rattus norvegicus [7] = experiment: (§2) Circulatory half life measured after intravenous bolus administration of 50 mg/kg of compound to rats; format: ADME, organism-based; parameters: dose 50 mg/kg, route intravenous; details: in vivo
[8] = Area under the curve measured after intravenous bolus administration of 50 mg/kg of compound to rats; format: ADME, organism-based; parameters: dose 50 mg/kg, route intravenous; details: rat, in vivo
[9] = Maximum plasma concentration measured after intravenous bolus administration of 50 mg/kg of compound to rats; format: ADME, organism-based; parameters: dose 50 mg/kg, route intravenous; details: rat
Rattus norvegicus [10] = experiment: (§3) Volume of distribution at a steady state measured after intravenous bolus administration of 50 mg/kg of compound to rats; format: ADME, organism-based; parameters: dose 50 mg/kg, route intravenous; details: in vivo
[11] = as §1; format: ADME, organism-based; parameters: dose 50 mg/kg, route intravenous; details: rat, in vivo
[12] = as §2; format: ADME, organism-based; parameters: dose 50 mg/kg, route intravenous; details: rat, in vivo
[13] = as §3; format: ADME, organism-based; parameters: dose 50 mg/kg, route intravenous; details: rat, in vivo, read-out: Vss

SMILES | solubility [1] | half-life [2] | Survival (Mus musculus [3]) | half-life [4] | CL (Rattus norvegicus [5]) | Survival (Mus musculus [6]) | T1/2 (Rattus norvegicus [7]) | AUC [8] | Cmax [9] | Vss (Rattus norvegicus [10]) | clearance ([11]; read-out: CL (converted)) | half-life [12] | Vd [13] | clearance [11]
O=C(O)COCCO | 128 mg/mL (≈ 1070 mM) | > 24 h | – | – | – | – | – | – | – | – | – | – | – | –
CN[C@H](CC(C)C)C(=O)N[C@H]1C(=O)N[C@@H](CC(N)=O)C(=O)N[C@H]2C(=O)N[C@H]3C(=O)N[C@H](C(=O)N[C@H](C(=O)O)c4cc(O)cc(O)c4-c4cc3ccc4O)[C@H](O)c3ccc(c(Cl)c3)Oc3cc2cc(c3OC2OC(CO)C(O)C(O)C2OC2CC(C)(NC(=O)OCc3cc(C)c(OC(=O)C(C)NC(=O)COCCO)c(C)c3)C(O)C(C)O2)Oc2ccc(cc2Cl)[C@H]1O (some centres undefined) | 122 mg/mL (≈ 67.8 mM) | 16 h | 80% | > 24 h | 2.972 mL/min/kg | 100% | 4.09 h | 282 µg·h/mL | 47.9 µg/mL | 2.6408 L/kg | – | – | – | –
CN[C@H](CC(C)C)C(=O)N[C@H]1C(=O)N[C@@H](CC(N)=O)C(=O)N[C@H]2C(=O)N[C@H]3C(=O)N[C@H](C(=O)N[C@H](C(=O)O)c4cc(O)cc(O)c4-c4cc3ccc4O)[C@H](O)c3ccc(c(Cl)c3)Oc3cc2cc(c3OC2OC(CO)C(O)C(O)C2OC2CC(C)(NC(=O)OCc3cc(C)c(OC(=O)COCCO)c(C)c3)C(O)C(C)O2)Oc2ccc(cc2Cl)[C@H]1O (some centres undefined) | 131 mg/mL (≈ 75.7 mM) | 2 h | – | 6.6 h | – | 100% | – | – | – | – | – | – | – | –
CN[C@H](CC(C)C)C(=O)N[C@H]1C(=O)N[C@@H](CC(N)=O)C(=O)N[C@H]2C(=O)N[C@H]3C(=O)N[C@H](C(=O)N[C@H](C(=O)O)c4cc(O)cc(O)c4-c4cc3ccc4O)[C@H](O)c3ccc(c(Cl)c3)Oc3cc2cc(c3OC2OC(CO)C(O)C(O)C2OC2CC(C)(NC(=O)OCc3cc(C)c(OC(=O)NCCOCCO)c(C)c3)C(O)C(C)O2)Oc2ccc(cc2Cl)[C@H]1O (some centres undefined) | 141 mg/mL (≈ 80.2 mM) | > 24 h | – | > 24 h | – | 90% | – | 717 µg·h/mL | 54.6 µg/mL | – | 1.17 mL/min/kg | 9.12 h | 1.65 L/kg | –
CN[C@H](CC(C)C)C(=O)N[C@H]1C(=O)N[C@@H](CC(N)=O)C(=O)N[C@H]2C(=O)N[C@H]3C(=O)N[C@H](C(=O)N[C@H](C(=O)O)c4cc(O)cc(O)c4-c4cc3ccc4O)[C@H](O)c3ccc(c(Cl)c3)Oc3cc2cc(c3OC2OC(CO)C(O)C(O)C2OC2CC(C)(NC(=O)OCc3cc(C)c(OC(=O)CNC(=O)COCCO)c(C)c3)C(O)C(C)O2)Oc2ccc(cc2Cl)[C@H]1O (some centres undefined) | 145 mg/mL (≈ 81.2 mM) | 19 h | – | 27 h | – | 100% | – | 386 µg·h/mL | 25.5 µg/mL | – | 2.19 mL/min/kg | 10.5 h | 2.72 L/kg | –
CN[C@H](CC(C)C)C(=O)N[C@H]1C(=O)N[C@@H](CC(N)=O)C(=O)N[C@H]2C(=O)N[C@H]3C(=O)N[C@H](C(=O)N[C@H](C(=O)O)c4cc(O)cc(O)c4-c4cc3ccc4O)[C@H](O)c3ccc(c(Cl)c3)Oc3cc2cc(c3OC2OC(CO)C(O)C(O)C2OC2CC(C)(NC(=O)OCc3cc(C)c(OC(=O)NCCOCCOCCNC(=O)CNC(=O)CC(NC(=O)COCCO)C(=O)NCC(=O)NCCOCCOCCNC(=O)Oc4c(C)cc(COC(=O)NC5(C)CC(OC6C(Oc7c8cc9cc7Oc7ccc(cc7Cl)[C@@H](O)[C@@H](NC(=O)[C@@H](CC(C)C)NC)C(=O)N[C@@H](CC(N)=O)C(=O)N[C@H]9C(=O)N[C@H]7C(=O)N[C@H](C(=O)N[C@H](C(=O)O)c9cc(O)cc(O)c9-c9cc7ccc9O)[C@H](O)c7ccc(c(Cl)c7)O8)OC(CO)C(O)C6O)OC(C)C5O)cc4C)c(C)c3)C(O)C(C)O2)Oc2ccc(cc2Cl)[C@H]1O (some centres undefined) | 141 mg/mL (≈ 36 mM) | 36 h | – | > 24 h | 0.383 mL/min/kg | 100% | 14.2 h | 2180 µg·h/mL | 107 µg/mL | 1.341 L/kg | – | – | – | –
CN[C@H](CC(C)C)C(=O)N[C@H]1C(=O)N[C@@H](CC(N)=O)C(=O)N[C@H]2C(=O)N[C@H]3C(=O)N[C@H](C(=O)N[C@H](C(=O)O)c4cc(O)cc(O)c4-c4cc3ccc4O)[C@H](O)c3ccc(c(Cl)c3)Oc3cc2cc(c3OC2OC(CO)C(O)C(O)C2OC2CC(C)(NC(=O)OCc3cc(C)c(OC(=O)CNC(=O)CC(NC(=O)COCCO)C(=O)NCC(=O)Oc4c(C)cc(COC(=O)NC5(C)CC(OC6C(Oc7c8cc9cc7Oc7ccc(cc7Cl)[C@@H](O)[C@@H](NC(=O)[C@@H](CC(C)C)NC)C(=O)N[C@@H](CC(N)=O)C(=O)N[C@H]9C(=O)N[C@H]7C(=O)N[C@H](C(=O)N[C@H](C(=O)O)c9cc(O)cc(O)c9-c9cc7ccc9O)[C@H](O)c7ccc(c(Cl)c7)O8)OC(CO)C(O)C6O)OC(C)C5O)cc4C)c(C)c3)C(O)C(C)O2)Oc2ccc(cc2Cl)[C@H]1O (some centres undefined) | 120 mg/mL (≈ 33.6 mM) | 20 h | – | > 24 h | 1.63 mL/min/kg | 100% | 12.37 h | 513 µg·h/mL | 29.3 µg/mL | 3.598 L/kg | – | – | – | –
CN[C@H](CC(C)C)C(=O)N[C@H]1C(=O)N[C@@H](CC(N)=O)C(=O)N[C@H]2C(=O)N[C@H]3C(=O)N[C@H](C(=O)N[C@H](C(=O)O)c4cc(O)cc(O)c4-c4cc3ccc4O)[C@H](O)c3ccc(c(Cl)c3)Oc3cc2cc(c3O[C@@H]2O[C@H](CO)[C@@H](O)[C@H](O)[C@H]2O[C@H]2C[C@](C)(N)[C@H](O)[C@H](C)O2)Oc2ccc(cc2Cl)[C@H]1O [VANCOMYCIN] | – | – | 0% | – | – | 100% | – | 78.8 µg·h/mL | 162 µg/mL | – | – | 0.34 h | 0.309 L/kg | 10.7 mL/min/kg
